Measured values: patent publication US20070105822A1, “Novel uses of known drugs” (priority 2003, published 2007)

Assays:
[1] = in vivo; cited from earlier work
human PBMC = experiment: TNFα ELISA on direct ex vivo human PBMC exposed to nBPs; type: cell-based; details: 10 μM risedronate or 100 μM pamidronate, 12 hours, FIG. 1B
Experimental: γδ T cells were washed in RPMI and incubated overnight in R10 at 37° C. 96-well nitrocellulose plates (Millipore) were incubated overnight at 4° C. with 15 μg/ml antihuman-IFN-γ primary antibody (clone 1-D1K; Mabtech, Sweden). The plates were then washed twice with RPMI and blocked with R10 for 3 hours at 37° C. R10 was decanted by inversion and assays applied to each well before incubation at 37° C. as detailed below. Assays were terminated by washing once in water, followed by 5 washes in PBS. Secondary antibody (anti-human-IFN-γ-Biotin antibody clone 7-B6-1; Mabtech) was applied at 1 μg/ml and the plate incubated for 100 minutes at room temperature (RT). The plate was washed 6 times with PBS before application of Streptavidin-ALP (1:1000 in PBS; Mabtech) for 40 minutes at RT. […] A TNFα ELISA kit (Peprotech) was used in accordance with the manufacturers instructions.
In FIG. 1 (B), nBPs are shown to stimulate TNFA production from direct ex vivo human PBMC. […] 60 μl aliquots were removed at the specified time and added to TNFα ELISA assays.

[2] = system: human PBMC depleted of γδ T cells; experiment: TNFα ELISA on PBMC after magnetic depletion of γδ T cells; type: cell-based; details: 100 μM pamidronate, 10 μM risedronate; FIG. 2A, 2B
Experimental: (§1) γδ T cells were washed in RPMI and incubated overnight in R10 at 37° C. 96-well nitrocellulose plates (Millipore) were incubated overnight at 4° C. with 15 μg/ml antihuman-IFN-γ primary antibody (clone 1-D1K; Mabtech, Sweden). The plates were then washed twice with RPMI and blocked with R10 for 3 hours at 37° C. R10 was decanted by inversion and assays applied to each well before incubation at 37° C. as detailed below. Assays were terminated by washing once in water, followed by 5 washes in PBS. Secondary antibody (anti-human-IFN-γ-Biotin antibody clone 7-B6-1; Mabtech) was applied at 1 μg/ml and the plate incubated for 100 minutes at room temperature (RT). The plate was washed 6 times with PBS before application of Streptavidin-ALP (1:1000 in PBS; Mabtech) for 40 minutes at RT. […]
10^8 human PBMC were incubated with 10 μg/ml of anti-human pan-γδ antibody for 30 minutes on ice. […] The success of depletion was determined by FACS analysis with the anti-CD3 and pan-γδ antibodies detailed above, and was >95% efficient in all cases shown.
5×10^6 PBMC from a healthy donor+/−magnetic depletion of γδ T cells were suspended in 1 ml of R10+/−antigen in 75×5 mm FACS tubes at 37° C. and 5% CO2 for the times shown. […] The percentage of cytokine positive cells (fluorescence intensity>20) is shown in the upper right corner of each panel.

circulating γδ T cells = details: cited from earlier work
Vγ9JPVδ2 T cells = experiment: IFNγ ELISpot with Vγ9JPVδ2 T cell clone Bob and spinner HeLa antigen presenting cells; type: cell-based, human; details: 1,000 Vγ9JPVδ2 T cells, 25,000 spinner HeLa cells per well, 6 hours; FIG. 1A
Experimental: (§2) γδ T cells were isolated from human peripheral blood using a magnetic separation kit (TCR γ/δ Microbead Kit and MS columns from Miltenyi Biotech). Once isolated, cells were resuspended in T cell medium (RPMI supplemented with 100 U/ml penicillin, 100 μg/ml streptomycin, 10% FCS, 10% T-STIM (BD Biosciences), 200 U/ml Proleukin (Chiron)) containing 2×10^6 γ-irradiated PMBC/ml from three individuals and 2 μg/ml PHA. Cells were maintained with T cell medium, and restimulated with mixed irradiated PBMC and PHA every three weeks. For cloning, the same mix was used to grow cells by limiting dilution in 96-well U-boftomed plates. Cells that grew were confirmed to be γδ T cells with Vγ9 antibody.
as §1, with “(RT).” for “(RT). The plate was washed 6 times with PBS before application of Streptavidin-ALP (1:1000 in PBS; Mabtech) for 40 minutes at RT.”

Vγ9-expressing T cells = experiment: Intracellular cytokine staining (ICS) of fresh PBMC exposed to nBPs; type: cell-based, human; details: for IL6 and TNFα production by Vγ9-expressing cells by ICS: 100 μM pamidronate, FIG. 2D
Experimental: 10^6 fresh PBMC were incubated in FACS tubes with brefeldin A (10 μg/ml R10) for 5 hours after pulsing with relevant antigens for 1 hour. The cells were then washed, permeabilised in 20% FACSLyse (BD Biosciences), washed twice in ice cold PBS/0.1% BSA and stained on ice with pre-titred APC-conjugated anti-IFNγ, anti-TNFα and anti-IL-2 and PE-conjugated anti-Vγ9 mAbs for 20 minutes. For single cytokine analysis (FIG. 2D), cells were stained with PE-conjugated anti-IL6, APC-conjugated anti-TNFα and FITC-conjugated anti-Vγ9 antibodies. In each case, cells were then washed, resuspended in PBS & analysed immediately.
5×10^6 PBMC from a healthy donor+/−magnetic depletion of γδ T cells were suspended in 1 ml of R10+/−antigen in 75×5 mm FACS tubes at 37° C. and 5% CO2 for the times shown. 60 μl of cell supernatant was removed and applied to TNFα ELISA plates in duplicate and developed according to the manufacturers instructions. Standard deviation from the mean of the two replicate ELISAs is shown although, in most cases, this error is smaller than the plot symbol. In (C), exposure to nBPs activates PBMC that express a Vγ9 receptor and not other T cells or B cells. 10^6 fresh human PBMC were exposed to R10 (top panel) or R10+10 μM risedronate (bottom panel) for 6 hours in an intracellular cytokine staining (ICS) assay. Plots show all the cells in the lymphocyte gate stained for PE-Vγ9 and APC-cytokines (TNFα, IL2, and IFNγ). Exposure to risedronate induces cytokine production only in lymphocytes that express a Vγ9 TCR. The percentage of total lymphocytes in the Vγ9^+ cytokine^+ gate shown is indicated in the upper right of each panel. Almost 10% of the lymphocytes expressing a Vγ9 receptor are activated by exposure to nBPs. […] Plots are gated to show only Vγ9-expressing lymphocytes. […] The percentage of cytokine positive cells (fluorescence intensity>20) is shown in the upper right corner of each panel.

γδ T cell = details: cited from earlier work
Vγ9JPVδ2 T cell clones = experiment: TNFα ELISA on Vγ9JPVδ2 T cell clones activated by risedronate; type: cell-based, human; details: 10 μM risedronate, 10^6 T cells, clones P, M and Bob; FIG. 1C
Experimental: as §2
as §1, with “(RT).” for “(RT). The plate was washed 6 times with PBS before application of Streptavidin-ALP (1:1000 in PBS; Mabtech) for 40 minutes at RT.”

Row | Compound | acute phase response [1] | TNFα production from direct ex vivo human PBMC (human PBMC) | TNFα production by PBMC after magnetic depletion of γδ T cells [2] | activation of clonal Vγ9JPVδ2 T cells by IFNγ ELISpot (Vγ9JPVδ2 T cells) | IL6 and TNFα production by Vγ9-expressing cells by ICS (Vγ9-expressing T cells; 10 μM risedronate) | also measured
1 | O=P(O)(O)C(Cl)(Cl)P(=O)(O)O [clodronate, disodium clodronate] | has not been observed |  |  |  |  | 
2 | CC(O)(P(=O)(O)O)P(=O)(O)O [etidronate, disodium etidronate] | has not been observed |  |  |  |  | 
3 | NCCC(O)(P(=O)(O)O)P(=O)(O)O [pamidronate, disodium pamidronate] |  | large amounts of TNFα | removed the ability of PBMC to produce TNFα | activate | make both IL6 and TNFα | number of circulating γδ T cells in patients with acute phase reaction (circulating γδ T cells; 1 and 3 weeks post-infusion): substantial increase; γδ T cells as % of CD3+ cells post-infusion (circulating γδ T cells; one patient, expanded from 4.6%): 70%
4 | O=P(O)(O)C(O)(Cc1cccnc1)P(=O)(O)O [risedronate, risedronate sodium] |  | large amounts of TNFα | removed the ability of PBMC to produce TNFα | activate | make both IL6 and TNFα | concentration stimulating γδ T cell expansion from human PBMC (γδ T cell): ≥ 10 nM; activation (TNFα production) of Vγ9JPVδ2 T cell clones (Vγ9JPVδ2 T cell clones): extremely rapid; lymphocytes expressing a Vγ9 receptor activated (cytokine+ by ICS) (Vγ9-expressing T cells; 10 μM risedronate (100 μM pamidronate, data not shown), 6 hours, TNFα, IL2, IFNγ staining, FIG. 2C): ~10%; expression of the Vγ9 TCR (Vγ9-expressing T cells; 10 μM risedronate, 6 hours, ICS): lowers the expression of the Vγ9 TCR
5 | O=P(O)(O)C(Sc1ccc(Cl)cc1)P(=O)(O)O [tiludronate] | has not been observed |  |  |  |  | 
